Reference: ChEMBL document CHEMBL1201862, “PubChem BioAssay data set” (2004)
Calls of active or inactive are those of the source.

Experiments:
[1] = luciferase reporter signal suppression in cells – H4 neuroglioma cells, luminescence, dose response (AID 1990); format: functional, cell-based
[2] = Luminescence Cell-Based Dose Response HTS to Identify Inhibitors of 5'UTR Stem-Loop Driven Prion Protein mRNA Translation in H4 Neuroglioblastoma Cells. [Related pubchem assays: 1827 (Project Summary), 1813 (Primary HTS)]; format: functional
[3] = alpha-synuclein stem-loop luciferase translation blockers – H4 neuroglioma cells, luminescence, confirmation (AID 1988); format: functional, cell-based
Exodeoxyribonuclease V = Exodeoxyribonuclease V (Escherichia coli (strain K12), UniProt P04993+P07648+P08394); assay: RecBCD inhibition via phage-restricted bacterial growth – absorbance, V66 E. coli, mutant T4 phage, counter-screen for AddAB inhibitor project, dose response (AID 492957); format: functional, cell-based, Escherichia coli str. K-12 substr. MG1655
[4] = Counterscreen for AddAB inhibitors: absorbance-based bacterial cell-based high throughput dose response assay for inhibitors of bacterial viability. [Related pubchem assays (depositor defined):AID435030, AID449728, AID449731, AID488942, AID488955, AID488956]; format: functional
[5] = biological target: Lysine-specific demethylase 4C (Homo sapiens, UniProt Q9H3R0); assay: inhibition of JMJD2C H3K9me3 demethylation – biochemical, DELFIA europium, cherry-picked samples, dose response (AID 488835); format: functional
Sequence of Lysine-specific demethylase 4C (Q9H3R0 whole entry): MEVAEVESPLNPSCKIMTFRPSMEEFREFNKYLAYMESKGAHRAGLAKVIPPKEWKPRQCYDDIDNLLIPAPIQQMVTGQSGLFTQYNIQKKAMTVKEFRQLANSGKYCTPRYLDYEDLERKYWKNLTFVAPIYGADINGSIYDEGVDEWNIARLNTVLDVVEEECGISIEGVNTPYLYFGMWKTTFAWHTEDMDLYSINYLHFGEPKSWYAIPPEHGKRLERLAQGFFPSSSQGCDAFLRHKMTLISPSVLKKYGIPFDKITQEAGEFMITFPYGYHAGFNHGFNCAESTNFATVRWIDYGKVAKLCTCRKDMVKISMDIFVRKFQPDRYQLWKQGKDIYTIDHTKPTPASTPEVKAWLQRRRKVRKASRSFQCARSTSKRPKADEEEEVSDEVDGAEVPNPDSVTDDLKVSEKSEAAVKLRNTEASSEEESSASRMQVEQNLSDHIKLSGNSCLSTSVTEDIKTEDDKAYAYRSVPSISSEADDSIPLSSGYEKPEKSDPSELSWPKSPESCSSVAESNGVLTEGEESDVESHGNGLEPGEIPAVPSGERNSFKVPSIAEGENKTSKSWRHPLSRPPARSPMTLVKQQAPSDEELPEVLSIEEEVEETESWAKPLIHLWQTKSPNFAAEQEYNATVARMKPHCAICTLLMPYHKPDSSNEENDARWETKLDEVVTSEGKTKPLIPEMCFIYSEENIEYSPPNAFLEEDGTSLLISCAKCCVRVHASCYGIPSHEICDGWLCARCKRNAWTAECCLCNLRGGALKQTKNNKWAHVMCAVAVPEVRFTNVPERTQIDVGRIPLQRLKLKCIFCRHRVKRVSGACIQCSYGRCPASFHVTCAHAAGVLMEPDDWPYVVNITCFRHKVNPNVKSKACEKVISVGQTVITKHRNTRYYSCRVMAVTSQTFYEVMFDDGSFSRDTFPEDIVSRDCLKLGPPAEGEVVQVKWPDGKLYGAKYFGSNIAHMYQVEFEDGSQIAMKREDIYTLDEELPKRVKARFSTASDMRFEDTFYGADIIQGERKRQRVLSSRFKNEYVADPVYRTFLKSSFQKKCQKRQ

Estrogen receptor beta = Estrogen receptor beta (Homo sapiens, UniProt Q92731); assay: blockers of SRC-3 recruitment to ERβ – biochemical, ELISA, streptavidin-HRP readout, orthogonal assay, confirmation (AID 1060)
Sequence of Estrogen receptor beta (Q92731 whole entry): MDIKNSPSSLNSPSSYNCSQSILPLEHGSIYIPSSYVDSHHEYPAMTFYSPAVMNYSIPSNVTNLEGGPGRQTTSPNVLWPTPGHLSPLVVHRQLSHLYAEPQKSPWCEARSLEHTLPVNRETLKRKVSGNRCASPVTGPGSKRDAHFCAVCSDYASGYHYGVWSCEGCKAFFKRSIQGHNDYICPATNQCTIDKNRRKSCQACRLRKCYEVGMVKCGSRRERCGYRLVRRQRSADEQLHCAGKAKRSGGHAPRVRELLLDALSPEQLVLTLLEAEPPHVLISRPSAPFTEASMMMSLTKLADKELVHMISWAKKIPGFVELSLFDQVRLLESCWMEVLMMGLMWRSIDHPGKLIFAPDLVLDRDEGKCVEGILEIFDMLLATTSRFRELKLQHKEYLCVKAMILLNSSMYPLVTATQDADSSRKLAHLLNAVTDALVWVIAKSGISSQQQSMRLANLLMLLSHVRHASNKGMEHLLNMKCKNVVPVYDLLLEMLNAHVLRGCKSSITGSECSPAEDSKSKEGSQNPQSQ

[6] = biological target: T1, Mannose-6-phosphate isomerase (Homo sapiens, UniProt P34949); assay: MPI inhibition at elevated mannose 6-phosphate – biochemical, fluorescence intensity, high mannose 6-phosphate, primary screen (AID 1220)
T1 sequence (P34949 whole entry): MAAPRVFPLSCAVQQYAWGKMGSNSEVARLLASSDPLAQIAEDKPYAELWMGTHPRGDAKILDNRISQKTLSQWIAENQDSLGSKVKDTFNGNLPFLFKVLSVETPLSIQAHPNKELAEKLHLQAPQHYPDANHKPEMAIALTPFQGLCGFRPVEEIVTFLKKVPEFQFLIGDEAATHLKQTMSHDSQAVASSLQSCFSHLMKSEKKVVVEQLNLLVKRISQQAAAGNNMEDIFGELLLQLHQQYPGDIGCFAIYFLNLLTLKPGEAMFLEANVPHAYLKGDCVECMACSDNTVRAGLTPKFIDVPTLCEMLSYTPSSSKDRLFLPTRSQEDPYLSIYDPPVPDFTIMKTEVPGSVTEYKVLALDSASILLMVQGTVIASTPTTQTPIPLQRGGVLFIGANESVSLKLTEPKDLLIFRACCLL

[7] = biological target: Intestinal-type alkaline phosphatase (Homo sapiens, UniProt P09923); assay: activation of human intestinal alkaline phosphatase – biochemical, dose response (AID 488873); format: functional
Sequence of Intestinal-type alkaline phosphatase (Homo sapiens, UniProt P09923) (P09923 whole entry): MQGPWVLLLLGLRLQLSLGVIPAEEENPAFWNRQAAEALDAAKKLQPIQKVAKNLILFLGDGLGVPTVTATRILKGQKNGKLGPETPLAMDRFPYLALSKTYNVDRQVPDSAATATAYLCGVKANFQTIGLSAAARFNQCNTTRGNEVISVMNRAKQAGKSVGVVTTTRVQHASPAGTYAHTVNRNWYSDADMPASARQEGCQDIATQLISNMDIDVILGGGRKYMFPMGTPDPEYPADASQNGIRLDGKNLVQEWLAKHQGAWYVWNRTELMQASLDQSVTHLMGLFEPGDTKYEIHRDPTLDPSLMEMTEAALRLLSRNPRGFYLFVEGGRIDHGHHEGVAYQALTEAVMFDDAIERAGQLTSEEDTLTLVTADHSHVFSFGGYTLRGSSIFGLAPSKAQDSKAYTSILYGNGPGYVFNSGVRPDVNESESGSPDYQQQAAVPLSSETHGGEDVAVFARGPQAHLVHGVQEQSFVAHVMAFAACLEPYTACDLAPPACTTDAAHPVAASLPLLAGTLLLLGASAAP

[8] = biological target: Intestinal-type alkaline phosphatase (Mus musculus, UniProt P24822); assay: mouse intestinal alkaline phosphatase activators, dose response, biochemical, luminescence, uHTS hits (AID 488783); format: functional
Sequence of Intestinal-type alkaline phosphatase (Mus musculus, UniProt P24822) (P24822 whole entry): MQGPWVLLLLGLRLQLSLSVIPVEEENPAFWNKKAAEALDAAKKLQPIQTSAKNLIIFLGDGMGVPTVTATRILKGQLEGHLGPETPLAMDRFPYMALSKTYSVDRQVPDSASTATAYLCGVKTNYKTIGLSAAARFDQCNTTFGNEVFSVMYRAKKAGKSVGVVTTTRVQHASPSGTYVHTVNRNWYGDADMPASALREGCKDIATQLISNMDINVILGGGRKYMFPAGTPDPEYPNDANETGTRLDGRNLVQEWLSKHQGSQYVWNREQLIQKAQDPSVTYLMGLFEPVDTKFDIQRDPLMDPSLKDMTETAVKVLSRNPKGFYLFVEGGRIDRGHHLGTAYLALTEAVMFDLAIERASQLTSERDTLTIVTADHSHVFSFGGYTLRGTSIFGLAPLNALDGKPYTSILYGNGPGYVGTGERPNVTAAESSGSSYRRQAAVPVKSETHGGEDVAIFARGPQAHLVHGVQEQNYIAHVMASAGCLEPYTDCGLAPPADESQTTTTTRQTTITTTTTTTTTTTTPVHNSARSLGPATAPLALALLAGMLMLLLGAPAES

[9] = biological target: T2, Alkaline phosphatase, tissue-nonspecific isozyme (Homo sapiens, UniProt P05186); assay: activation of tissue-nonspecific alkaline phosphatase – biochemical, TNAP isozyme, mouse IAP uHTS hits, selectivity assay for mouse IAP activator project, dose response (AID 488880); format: functional
T2 sequence (P05186 whole entry): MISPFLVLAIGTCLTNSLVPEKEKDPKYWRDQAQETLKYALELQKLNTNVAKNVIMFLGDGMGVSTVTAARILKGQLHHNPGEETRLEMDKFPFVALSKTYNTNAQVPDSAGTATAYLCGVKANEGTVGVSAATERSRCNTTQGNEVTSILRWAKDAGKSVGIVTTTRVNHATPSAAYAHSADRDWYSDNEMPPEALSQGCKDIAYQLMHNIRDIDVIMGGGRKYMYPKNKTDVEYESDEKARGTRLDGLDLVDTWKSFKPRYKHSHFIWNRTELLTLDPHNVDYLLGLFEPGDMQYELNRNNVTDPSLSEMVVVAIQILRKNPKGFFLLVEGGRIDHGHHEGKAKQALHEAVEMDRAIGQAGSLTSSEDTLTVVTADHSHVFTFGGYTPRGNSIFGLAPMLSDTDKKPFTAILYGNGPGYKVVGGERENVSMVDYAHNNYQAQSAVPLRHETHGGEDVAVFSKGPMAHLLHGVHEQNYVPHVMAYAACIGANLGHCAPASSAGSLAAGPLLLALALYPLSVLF

[10] = biological target: T3, Kappa-type opioid receptor (Homo sapiens, UniProt P41145); assay: kappa opioid receptor activation by imaging – image-based, set 3, SAR follow-up (AID 488833); format: functional
T3 sequence (P41145 whole entry): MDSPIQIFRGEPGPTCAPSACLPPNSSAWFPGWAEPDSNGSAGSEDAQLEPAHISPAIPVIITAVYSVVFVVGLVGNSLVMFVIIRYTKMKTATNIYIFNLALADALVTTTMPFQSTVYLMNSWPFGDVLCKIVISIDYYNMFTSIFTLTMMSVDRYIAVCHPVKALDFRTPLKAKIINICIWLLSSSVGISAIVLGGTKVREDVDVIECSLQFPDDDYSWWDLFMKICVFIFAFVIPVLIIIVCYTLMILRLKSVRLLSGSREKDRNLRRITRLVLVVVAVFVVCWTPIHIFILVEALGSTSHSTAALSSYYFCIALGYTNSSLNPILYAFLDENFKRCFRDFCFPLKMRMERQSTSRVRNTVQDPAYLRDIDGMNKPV

Mu-type opioid receptor = Mu-type opioid receptor (Homo sapiens, UniProt P35372); assay: SAR Analysis of Agonists of the MOR Receptor using an Image-Based Assay - Set 3. [Related pubchem assays (depositor defined):AID1777, AID1785, AID1786, AID1966, AID2133, AID2136, AID2284, AID2285, AID2352]; format: functional
Sequence of Mu-type opioid receptor (P35372 whole entry): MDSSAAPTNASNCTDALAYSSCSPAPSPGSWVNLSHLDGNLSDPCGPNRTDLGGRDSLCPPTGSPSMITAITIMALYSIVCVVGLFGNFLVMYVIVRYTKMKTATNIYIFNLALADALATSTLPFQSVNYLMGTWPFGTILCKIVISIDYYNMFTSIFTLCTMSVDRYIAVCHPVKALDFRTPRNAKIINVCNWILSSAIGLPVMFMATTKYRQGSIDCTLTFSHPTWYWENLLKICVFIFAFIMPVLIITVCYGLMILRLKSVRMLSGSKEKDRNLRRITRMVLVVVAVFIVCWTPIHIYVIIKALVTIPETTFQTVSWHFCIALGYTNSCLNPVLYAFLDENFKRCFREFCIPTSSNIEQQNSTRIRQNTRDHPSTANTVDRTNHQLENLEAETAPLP

[11] = biological target: Delta-type opioid receptor (Homo sapiens, UniProt P41143); assay: SAR Analysis of Agonists of the DOR Receptor using an Image-Based Assay - Set 3. [Related pubchem assays (depositor defined):AID1777, AID1786]; format: functional
Sequence of Delta-type opioid receptor (P41143 whole entry): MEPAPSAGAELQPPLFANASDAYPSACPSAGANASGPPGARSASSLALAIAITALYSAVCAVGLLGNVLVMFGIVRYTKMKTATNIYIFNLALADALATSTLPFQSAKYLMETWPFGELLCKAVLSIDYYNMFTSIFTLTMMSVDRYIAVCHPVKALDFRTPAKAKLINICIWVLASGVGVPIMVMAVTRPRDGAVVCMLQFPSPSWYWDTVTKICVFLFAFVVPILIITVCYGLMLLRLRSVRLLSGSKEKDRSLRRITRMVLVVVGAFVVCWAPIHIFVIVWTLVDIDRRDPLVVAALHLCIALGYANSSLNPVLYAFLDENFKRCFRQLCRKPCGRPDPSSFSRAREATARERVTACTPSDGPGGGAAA

[12] = biological target: T3, Kappa-type opioid receptor; assay: SAR analysis of small molecule agonists of the kappa opioid receptor via a luminescent beta-arrestin assay - Set 3. [Related pubchem assays (depositor defined):AID1777, AID1785, AID1786, AID1966, AID2133, AID2136, AID2284, AID2500]; format: functional
[13] = toxicity toward cultured mammalian cells – cell-based, plate reader, cherry-pick samples, cytotoxicity control, dose response (AID 504397); format: functional
[14] = biological target: T4, RNA-binding protein pos-1 (Caenorhabditis elegans, UniProt G5EF15); assay: disruptors of C. elegans POS-1 RNA interaction – biochemical, fluorescence polarization, dose response (AID 1964);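 note: purified POS-1 fused to maltose binding protein made in E. coli; potency of compounds blocking POS-1 binding to fluorescent RNA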
T4 sequence (G5EF15 whole entry): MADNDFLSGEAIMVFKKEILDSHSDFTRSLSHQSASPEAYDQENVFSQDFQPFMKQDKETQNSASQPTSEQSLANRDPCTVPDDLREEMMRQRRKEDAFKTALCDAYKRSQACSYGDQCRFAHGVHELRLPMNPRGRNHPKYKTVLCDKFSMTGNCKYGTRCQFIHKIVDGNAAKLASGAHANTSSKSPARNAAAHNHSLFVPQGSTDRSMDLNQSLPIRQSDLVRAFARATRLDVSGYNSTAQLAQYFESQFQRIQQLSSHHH

[15] = biological target: T5, Runt-related transcription factor 1/Core-binding factor subunit beta (Homo sapiens, UniProt Q01196+Q13951); assay: disruptors of Runt domain/CBFb-SMMHC interaction – biochemical, FRET, Cerulean-Runt, Venus-CBFb-SMMHC, uHTS, […] (AID 1434); format: protein assay
T5 sequence (Q01196 whole entry, the tested form may be a part): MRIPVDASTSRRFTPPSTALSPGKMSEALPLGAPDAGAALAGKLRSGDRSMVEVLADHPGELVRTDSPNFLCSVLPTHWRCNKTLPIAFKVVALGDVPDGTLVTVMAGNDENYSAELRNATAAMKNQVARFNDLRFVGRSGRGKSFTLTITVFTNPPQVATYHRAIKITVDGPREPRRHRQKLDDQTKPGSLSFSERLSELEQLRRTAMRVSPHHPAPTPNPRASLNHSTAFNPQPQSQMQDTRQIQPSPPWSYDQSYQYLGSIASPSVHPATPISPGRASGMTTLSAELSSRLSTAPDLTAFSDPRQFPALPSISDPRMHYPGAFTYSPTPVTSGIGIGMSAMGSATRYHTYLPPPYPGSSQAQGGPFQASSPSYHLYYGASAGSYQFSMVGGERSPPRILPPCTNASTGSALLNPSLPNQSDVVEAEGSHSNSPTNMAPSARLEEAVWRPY
T5 sequence (Q13951 whole entry, the tested form may be a part): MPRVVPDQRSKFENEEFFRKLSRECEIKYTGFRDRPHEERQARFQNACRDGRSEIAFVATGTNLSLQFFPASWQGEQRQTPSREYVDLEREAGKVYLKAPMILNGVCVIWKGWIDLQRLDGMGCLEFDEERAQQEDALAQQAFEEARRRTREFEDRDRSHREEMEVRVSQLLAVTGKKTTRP

[16] = biological target: T6, Zinc finger protein mex-5 (Caenorhabditis elegans, UniProt Q9XUB2); assay: potency of MEX-5 RNA-binding blockers – biochemical, C. elegans, fluorescence polarization, dose response (AID 1960)
T6 sequence (Q9XUB2 whole entry): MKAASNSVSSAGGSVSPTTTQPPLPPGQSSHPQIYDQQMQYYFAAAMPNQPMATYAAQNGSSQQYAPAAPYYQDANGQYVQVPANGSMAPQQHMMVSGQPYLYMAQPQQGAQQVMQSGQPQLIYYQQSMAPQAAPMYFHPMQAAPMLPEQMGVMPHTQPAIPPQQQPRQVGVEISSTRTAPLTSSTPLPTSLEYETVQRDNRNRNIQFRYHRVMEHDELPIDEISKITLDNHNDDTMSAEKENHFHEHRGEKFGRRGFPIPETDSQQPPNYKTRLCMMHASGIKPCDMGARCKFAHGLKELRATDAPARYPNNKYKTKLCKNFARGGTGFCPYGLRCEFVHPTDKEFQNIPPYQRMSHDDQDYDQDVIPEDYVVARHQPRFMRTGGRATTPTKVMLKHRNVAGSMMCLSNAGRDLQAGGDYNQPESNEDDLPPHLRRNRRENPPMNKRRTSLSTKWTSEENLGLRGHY

[17] = biological target: T5, Runt-related transcription factor 1/Core-binding factor subunit beta; assay: Runt domain/CBFb-SMMHC interaction disruptors – biochemical, TR-FRET (AID 1438); format: protein assay
[18] = biological target: Induced myeloid leukemia cell differentiation protein Mcl-1 (Homo sapiens, UniProt Q07820); format: functional
Sequence of Induced myeloid leukemia cell differentiation protein Mcl-1 (Q07820 whole entry): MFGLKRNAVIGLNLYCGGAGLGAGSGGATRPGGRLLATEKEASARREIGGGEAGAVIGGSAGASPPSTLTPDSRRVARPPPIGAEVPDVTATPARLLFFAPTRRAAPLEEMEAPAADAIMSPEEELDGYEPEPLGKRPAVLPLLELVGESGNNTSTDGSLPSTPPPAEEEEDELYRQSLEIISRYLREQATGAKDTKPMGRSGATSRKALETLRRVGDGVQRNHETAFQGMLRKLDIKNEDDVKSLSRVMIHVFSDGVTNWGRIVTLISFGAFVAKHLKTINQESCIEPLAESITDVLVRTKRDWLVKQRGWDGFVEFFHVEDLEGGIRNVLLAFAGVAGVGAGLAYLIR

With CCCNC(=O)c1ccc2c(O)c(O)c(-c3ccsc3)nc2c1 the EC50 [1] was 11.7 µM (active), the EC50 [2] was 10.6 µM (active) and the EC50 [3] was 8.96 µM (active). The IC50 (Exodeoxyribonuclease V) was > 118 µM (inactive) and the IC50 [4] was > 118 µM (inactive).
With COc1ccc(NC(=O)C2CCCCN2N)cc1OCC(C)C (stereo unspecified) the AC50 [5] was 27.6 µM (active).
In the case of Oc1ccc2cc3c4cc(Br)ccc4nc-3oc2c1O, the IC50 (Estrogen receptor beta) is reported as 5.38 µM (not active), the IC50 [6] is reported as 30 µM (active) and the EC50 [7] is reported as 21.2 µM (active). The EC50 [8] was 22.1 µM (active) and the EC50 [9] was 24 µM (active).
In the case of CC(C)c1ccc(CSc2nnc(-c3ccccn3)n2Cc2ccco2)cc1, the EC50 [10] is reported as 2.84 µM (active), the EC50 (Mu-type opioid receptor) is reported as > 32 µM (inactive) and the EC50 [11] is reported as > 64 µM (inactive). The EC50 [12] was 5.97 µM (active).
For COc1ccccc1/C=C/C=N/NC(=O)CN1CCN(S(=O)(=O)c2ccc(C)cc2)CC1, the AC50 [13] was 132 µM (active).
In the case of COc1ccc(C(=O)/N=c2\c(C#N)cc3c(=O)n4cccc(C)c4nc3n2Cc2ccco2)cc1, the EC50 [14] is reported as 220 µM (active), the IC50 [15] is reported as 8.9 µM (active) and the EC50 [16] is reported as > 300 µM (not active). For the same molecule, the IC50 [17] was 73.7 µM (inactive) and the IC50 [18] was 3.9 µM (active).
